Measured values: US11319299B2, “Substituted carboxamides as inhibitors of WDR5 protein-protein binding” (PROPELLON THERAPEUTICS INC., priority 2016, dated 2022)

Target: WDR5 (Homo sapiens (Human), UniProt P61964)
Assay: Surface Plasmon Resonance (SPR) assay, KD and residence time
Format: binding
Settings: surface plasmon resonance (SPR) assay; read-out: WDR5 binding affinity (KD)

Kd | SMILES
2.3 nM | Cc1cc(C)nc(N2CC=C(c3cc(NC(=O)c4c[nH]c(=O)cc4C(F)(F)F)c(N4C[C@@H](C)N(C)[C@@H](C)C4)cc3F)CC2)n1 [Example 368, N-[5-[1-(4,6-dimethylpyrimidin-2-yl)-3,6-dihydro-2H-pyridin-4-yl]-4-fluoro-2-[(3R,5S)-3,4,5-trimethylpiperazin-1-yl]phenyl]-6-oxo-4-(trifluoromethyl)-1H-pyridine-3-carboxamide]
0.685 nM | C[C@@H]1CN(c2cc(F)c(C3=CCN(c4ncc(C=O)cn4)CC3)cc2NC(=O)c2c[nH]c(=O)cc2C(F)(F)F)C[C@H](C)N1C [Example 369, N-[4-fluoro-5-[1-(5-formylpyrimidin-2-yl)-3,6-dihydro-2H-pyridin-4-yl]-2-[(3R,5S)-3,4,5-trimethylpiperazin-1-yl]phenyl]-6-oxo-4-(trifluoromethyl)-1H-pyridine-3-carboxamide]
0.59 nM | C[C@@H]1CN(c2cc(F)c(-c3cnc(N(C)C4CCOCC4)nc3)cc2NC(=O)c2c[nH]c(=O)cc2C(F)(F)F)C[C@H](C)N1C [Example 371, N-[4-fluoro-5-[2-[methyl(oxan-4-yl)amino]pyrimidin-5-yl]-2-[(3R,5S)-3,4,5-trimethylpiperazin-1-yl]phenyl]-6-oxo-4-(trifluoromethyl)-1H-pyridine-3-carboxamide]
1.75 nM | C[C@@H]1CN(c2cc(F)c(C3=CCCN(C(=O)N(C)C)C3)cc2NC(=O)c2c[nH]c(=O)cc2C(F)(F)F)C[C@H](C)N1C [Example 372, N-[5-[1-(dimethylcarbamoyl)-3,6-dihydro-2H-pyridin-5-yl]-4-fluoro-2-[(3R,5S)-3,4,5-trimethylpiperazin-1-yl]phenyl]-6-oxo-4-(trifluoromethyl)-1H-pyridine-3-carboxamide]
1.15 nM | C[C@@H]1CN(c2cc(F)c(C3=CCCN(C(=O)N4CCCC4)C3)cc2NC(=O)c2c[nH]c(=O)cc2C(F)(F)F)C[C@H](C)N1C [Example 374, N-[4-fluoro-5-[1-(pyrrolidine-1-carbonyl)-3,6-dihydro-2H-pyridin-5-yl]-2-[(3R,5S)-3,4,5-trimethylpiperazin-1-yl]phenyl]-6-oxo-4-(trifluoromethyl)-1H-pyridine-3-carboxamide]
0.688 nM | COc1cnc(N2CCC=C(c3cc(NC(=O)c4c[nH]c(=O)cc4C(F)(F)F)c(N4C[C@@H](C)N(C)[C@@H](C)C4)cc3F)C2)nc1 [Example 375, N-[4-fluoro-5-[1-(5-methoxypyrimidin-2-yl)-3,6-dihydro-2H-pyridin-5-yl]-2-[(3R,5S)-3,4,5-trimethylpiperazin-1-yl]phenyl]-6-oxo-4-(trifluoromethyl)-1H-pyridine-3-carboxamide]
0.673 nM | Cc1cnc(N2CCC=C(c3cc(NC(=O)c4c[nH]c(=O)cc4C(F)(F)F)c(N4C[C@@H](C)N(C)[C@@H](C)C4)cc3F)C2)nc1 [Example 376, N-[4-fluoro-5-[1-(5-methylpyrimidin-2-yl)-3,6-dihydro-2H-pyridin-5-yl]-2-[(3R,5S)-3,4,5-trimethylpiperazin-1-yl]phenyl]-6-oxo-4-(trifluoromethyl)-1H-pyridine-3-carboxamide]
1.3 nM | C[C@@H]1CN(c2cc(F)c(C3=CCCN(c4ncc(F)cn4)C3)cc2NC(=O)c2c[nH]c(=O)cc2C(F)(F)F)C[C@H](C)N1C [Example 377, N-[4-fluoro-5-[1-(5-fluoropyrimidin-2-yl)-3,6-dihydro-2H-pyridin-5-yl]-2-[(3R,5S)-3,4,5-trimethylpiperazin-1-yl]phenyl]-6-oxo-4-(trifluoromethyl)-1H-pyridine-3-carboxamide]
0.933 nM | C[C@@H]1CN(c2cc(F)c(-c3cnc(N4CCN(C)CC4)nc3)cc2NC(=O)c2ccc(F)cc2C(F)(F)F)C[C@H](C)N1C [Example 379, 4-fluoro-N-[4-fluoro-5-[2-(4-methylpiperazin-1-yl)pyrimidin-5-yl]-2-[(3R,5S)-3,4,5-trimethylpiperazin-1-yl]phenyl]-2-(trifluoromethyl)benzamide]
1.7 nM | C[C@@H]1CN(c2cc(F)c(-c3cnc(N(C)C)nc3)cc2NC(=O)c2ccc(F)cc2C(F)(F)F)C[C@H](C)N1C [Example 380, N-[5-[2-(dimethylamino)pyrimidin-5-yl]-4-fluoro-2-[(3R,5S)-3,4,5-trimethylpiperazin-1-yl]phenyl]-4-fluoro-2-(trifluoromethyl)benzamide]
0.31 nM | C[C@@H]1CN(c2ncc(-c3cc(NC(=O)c4ccc(F)cc4C(F)(F)F)c(N4C[C@@H](C)N(C)[C@@H](C)C4)cc3F)cn2)C[C@H](C)N1C [Example 381, 4-fluoro-N-[4-fluoro-2-[(3R,5S)-3,4,5-trimethylpiperazin-1-yl]-5-[2-[(3R,5S)-3,4,5-trimethylpiperazin-1-yl]pyrimidin-5-yl]phenyl]-2-(trifluoromethyl)benzamide]
1.53 nM | C[C@@H]1CN(c2cc(F)c(-c3ccc(N4CCOCC4)nn3)cc2NC(=O)c2c[nH]c(=O)cc2C(F)(F)F)C[C@H](C)N1C [Example 384, N-[4-fluoro-5-(6-morpholin-4-ylpyridazin-3-yl)-2-[(3R,5S)-3,4,5-trimethylpiperazin-1-yl]phenyl]-6-oxo-4-(trifluoromethyl)-1H-pyridine-3-carboxamide]
0.72 nM | C[C@@H]1CN(c2ncc(-c3cc(NC(=O)c4c[nH]c(=O)cc4C(F)F)c(N4C[C@@H](C)N(C)[C@@H](C)C4)cc3F)cn2)C[C@H](C)O1 [Example 385, 4-(difluoromethyl)-N-[4-fluoro-5-[2-[(2R,6S)-2,6-dimethylmorpholin-4-yl]pyrimidin-5-yl]-2-[(3S,5R)-3,4,5-trimethylpiperazin-1-yl]phenyl]-6-oxo-1H-pyridine-3-carboxamide]
1.49 nM | C[C@@H]1CN(c2ncc(-c3cc(NC(=O)c4c[nH]c(=O)cc4C(F)F)c(N4C[C@@H](C)N(C)[C@@H](C)C4)cc3F)cn2)CCO1 [Example 386, 4-(difluoromethyl)-N-[4-fluoro-5-[2-[(2R)-2-methylmorpholin-4-yl]pyrimidin-5-yl]-2-[(3R,5S)-3,4,5-trimethylpiperazin-1-yl]phenyl]-6-oxo-1H-pyridine-3-carboxamide]
0.788 nM | C[C@@H]1CN(c2ncc(-c3cc(NC(=O)c4c[nH]c(=O)cc4C(F)(F)F)c(N4C[C@@H](C)N(C)[C@@H](C)C4)cc3F)cn2)CCO1 [Example 388, N-[4-fluoro-5-[2-[(2R)-2-methylmorpholin-4-yl]pyrimidin-5-yl]-2-[(3R,5S)-3,4,5-trimethylpiperazin-1-yl]phenyl]-6-oxo-4-(trifluoromethyl)-1H-pyridine-3-carboxamide]
4.27 nM | C[C@@H]1CN(c2cc(F)c(C3=CCCN(c4ncccn4)C3)cc2NC(=O)c2cn(C)c(=O)cc2C(F)(F)F)C[C@H](C)N1C [Example 391, N-[4-fluoro-5-(1-pyrimidin-2-yl-3,6-dihydro-2H-pyridin-5-yl)-2-[(3R,5S)-3,4,5-trimethylpiperazin-1-yl]phenyl]-1-methyl-6-oxo-4-(trifluoromethyl)pyridine-3-carboxamide]
8.08 nM | C[C@@H]1CN(c2cc(F)c(N3CCN(Cc4ccc(F)cc4)CC3)cc2NC(=O)c2c[nH]c(=O)cc2C(F)(F)F)C[C@H](C)N1C [Example 392, N-[4-fluoro-5-[4-[(4-fluorophenyl)methyl]piperazin-1-yl]-2-[(3R,5S)-3,4,5-trimethylpiperazin-1-yl]phenyl]-6-oxo-4-(trifluoromethyl)-1H-pyridine-3-carboxamide]
13.3 nM | C[C@@H]1CN(c2cc(F)c(N3CCN(c4ncccn4)CC3)cc2NC(=O)c2c[nH]c(=O)cc2C(F)(F)F)C[C@H](C)N1C [Example 393, N-[4-fluoro-5-(4-pyrimidin-2-ylpiperazin-1-yl)-2-[(3R,5S)-3,4,5-trimethylpiperazin-1-yl]phenyl]-6-oxo-4-(trifluoromethyl)-1H-pyridine-3-carboxamide]
0.775 nM | C[C@@H]1CN(c2cc(F)c(C3=CCN(c4ncc(CO)cn4)CC3)cc2NC(=O)c2c[nH]c(=O)cc2C(F)(F)F)C[C@H](C)N1C [Example 394, N-[4-fluoro-5-[1-[5-(hydroxymethyl)pyrimidin-2-yl]-3,6-dihydro-2H-pyridin-4-yl]-2-[(3R,5S)-3,4,5-trimethylpiperazin-1-yl]phenyl]-6-oxo-4-(trifluoromethyl)-1H-pyridine-3-carboxamide]
0.564 nM | C[C@@H]1CN(c2ncc(-c3cc(NC(=O)c4c[nH]c(=O)cc4C(F)F)c(N4CCN(C)[C@@H](C)C4)cc3F)cn2)CCO1 [Example 396, 4-(difluoromethyl)-N-[4-fluoro-2-[(3S)-3,4-dimethylpiperazin-1-yl]-5-[2-[(2R)-2-methylmorpholin-4-yl]pyrimidin-5-yl]phenyl]-6-oxo-1H-pyridine-3-carboxamide]

Same assay, conditions: surface plasmon resonance (SPR); read-out: WDR5 binding affinity (KD)

Kd | SMILES
4.58 nM | C[C@@H]1CN(c2cc(F)c(-c3ccnc(S(C)(=O)=O)n3)cc2NC(=O)c2c[nH]c(=O)cc2C(F)(F)F)C[C@H](C)N1C [Example 399, N-[4-fluoro-5-(2-methylsulfonylpyrimidin-4-yl)-2-[(3R,5S)-3,4,5-trimethylpiperazin-1-yl]phenyl]-6-oxo-4-(trifluoromethyl)-1H-pyridine-3-carboxamide]
1 nM | C[C@@H]1CN(c2cc(F)c(C3=CCN(c4ncc(C#N)cn4)CC3)cc2NC(=O)c2c[nH]c(=O)cc2C(F)(F)F)C[C@H](C)N1C [Example 404, N-[5-[1-(5-cyanopyrimidin-2-yl)-3,6-dihydro-2H-pyridin-4-yl]-4-fluoro-2-[(3R,5S)-3,4,5-trimethylpiperazin-1-yl]phenyl]-6-oxo-4-(trifluoromethyl)-1H-pyridine-3-carboxamide]
0.095 nM | C[C@@H]1CN(c2cc(F)c(C3=CCN(c4ncc(CN(C)C)cn4)CC3)cc2NC(=O)c2c[nH]c(=O)cc2C(F)(F)F)C[C@H](C)N1C [Example 405, N-[5-[1-[5-[(dimethylamino)methyl]pyrimidin-2-yl]-3,6-dihydro-2H-pyridin-4-yl]-4-fluoro-2-[(3R,5S)-3,4,5-trimethylpiperazin-1-yl]phenyl]-6-oxo-4-(trifluoromethyl)-1H-pyridine-3-carboxamide]
